Counter-ions that a name gives are not always drawn. Like-named read-outs stand apart in the source and are kept apart here.
Molecular target: T1, hNaV1.7 (Homo sapiens, UniProt Q15858)
T1 construct: expressed in transfected cells; host or cells: HEK293
Assay: QPatch NaV1.7 assay (whole-cell patch clamp, QPatch16x)
Type: cell-based
Conditions: HEK293-hNaV1.7 cells
How it was run: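 HEK293 cells expressing hNaV1.7 recorded by automated whole-cell patch clamp (CsF internal, pH 7.3). Peak currents from 20 ms steps to 0 mV measured at holding potentials of −90 mV and V1/2 SSI; four-point cumulative concentrations, 120 s each, Hill fits gave pIC50 at each potential.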

[1] = holding voltage V1/2 SSI (half of channels inactivated), read-out: QP Nav1.7 SSI vhalf pIC50 (converted)
[2] = holding voltage −90 mV (most channels closed), read-out: QP Nav1.7 −90 mV pIC50 (converted)

T1 sequence (Q15858 whole entry): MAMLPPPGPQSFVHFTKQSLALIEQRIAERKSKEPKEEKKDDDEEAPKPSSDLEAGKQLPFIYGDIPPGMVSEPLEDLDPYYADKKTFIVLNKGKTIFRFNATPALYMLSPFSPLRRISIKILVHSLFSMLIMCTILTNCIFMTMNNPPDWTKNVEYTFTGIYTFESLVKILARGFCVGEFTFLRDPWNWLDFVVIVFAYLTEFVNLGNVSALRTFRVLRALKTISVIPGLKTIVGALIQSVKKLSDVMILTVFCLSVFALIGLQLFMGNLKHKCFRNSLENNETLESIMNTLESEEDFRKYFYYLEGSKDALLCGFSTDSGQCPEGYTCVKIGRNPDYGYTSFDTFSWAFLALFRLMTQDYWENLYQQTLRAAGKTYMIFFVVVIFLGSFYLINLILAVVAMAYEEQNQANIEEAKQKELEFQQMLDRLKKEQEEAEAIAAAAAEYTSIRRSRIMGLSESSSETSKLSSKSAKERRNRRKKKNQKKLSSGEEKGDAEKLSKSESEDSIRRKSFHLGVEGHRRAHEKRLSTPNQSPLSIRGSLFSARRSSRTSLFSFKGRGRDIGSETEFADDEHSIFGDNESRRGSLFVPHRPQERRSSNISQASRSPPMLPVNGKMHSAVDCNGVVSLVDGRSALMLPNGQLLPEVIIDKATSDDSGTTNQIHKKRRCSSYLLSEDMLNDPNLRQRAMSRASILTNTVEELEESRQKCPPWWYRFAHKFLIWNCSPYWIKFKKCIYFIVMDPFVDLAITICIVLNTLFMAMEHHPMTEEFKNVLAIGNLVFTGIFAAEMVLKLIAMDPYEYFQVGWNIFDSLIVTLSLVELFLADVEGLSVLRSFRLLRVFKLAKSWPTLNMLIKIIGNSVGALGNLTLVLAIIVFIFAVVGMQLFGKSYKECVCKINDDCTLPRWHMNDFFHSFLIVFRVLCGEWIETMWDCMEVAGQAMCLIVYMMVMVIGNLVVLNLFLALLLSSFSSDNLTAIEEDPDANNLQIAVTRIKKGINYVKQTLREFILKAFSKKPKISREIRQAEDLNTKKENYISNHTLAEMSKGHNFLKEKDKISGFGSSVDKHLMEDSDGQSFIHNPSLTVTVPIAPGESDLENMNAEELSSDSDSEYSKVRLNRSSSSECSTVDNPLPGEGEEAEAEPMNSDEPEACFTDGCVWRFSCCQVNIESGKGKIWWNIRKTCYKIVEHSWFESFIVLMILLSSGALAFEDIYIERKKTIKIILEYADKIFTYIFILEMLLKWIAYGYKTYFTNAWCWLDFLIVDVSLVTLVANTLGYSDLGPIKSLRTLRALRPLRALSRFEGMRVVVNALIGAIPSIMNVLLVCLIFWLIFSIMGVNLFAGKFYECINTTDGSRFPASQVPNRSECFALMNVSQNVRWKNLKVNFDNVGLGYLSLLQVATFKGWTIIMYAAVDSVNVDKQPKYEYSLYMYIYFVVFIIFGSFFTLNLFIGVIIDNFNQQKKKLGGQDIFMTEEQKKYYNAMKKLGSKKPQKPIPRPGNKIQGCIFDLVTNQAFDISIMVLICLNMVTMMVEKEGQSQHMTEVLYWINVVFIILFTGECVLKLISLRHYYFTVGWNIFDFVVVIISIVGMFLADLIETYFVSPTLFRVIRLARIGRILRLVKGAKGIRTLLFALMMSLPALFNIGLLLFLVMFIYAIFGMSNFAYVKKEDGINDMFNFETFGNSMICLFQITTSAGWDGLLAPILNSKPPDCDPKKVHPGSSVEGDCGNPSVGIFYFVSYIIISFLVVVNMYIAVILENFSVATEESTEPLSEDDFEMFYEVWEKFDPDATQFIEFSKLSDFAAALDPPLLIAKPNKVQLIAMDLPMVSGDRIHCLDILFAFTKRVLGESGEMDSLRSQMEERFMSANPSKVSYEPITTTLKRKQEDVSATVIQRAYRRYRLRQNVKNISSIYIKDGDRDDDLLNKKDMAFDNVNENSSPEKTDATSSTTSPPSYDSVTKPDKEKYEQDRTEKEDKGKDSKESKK

Row | Structure (SMILES) | IC50 [1] | IC50 [2]
1 | O=C1NCCC[C@]12CC[C@H](c1cc(-c3ccc(C(F)(F)F)cc3)ccn1)N2 [Example 50, (2R,5S)-2-[4-(4-Trifluoromethyl-phenyl)-pyridin-2-yl]-1,7-diaza-spiro[4.5]decan-6-one hydrochloride] | 0.251 µM | 2.51 µM
2 | Cc1cc(-c2cc(C(F)(F)F)ccc2C(N)=O)cc([C@@H]2CC[C@]3(CCN(C)C3=O)N2)n1 [Example 27, 2-[2-Methyl-6-[(2S,5R)-7-methyl-6-oxo-1,7-diazaspiro[4.4]nonan-2-yl]-4-pyridyl]-4-(trifluoromethyl)benzamide hydrochloride] | 39800 µM | –
3 | CCOc1ccc(F)c(-c2cc([C@H]3CC[C@@]4(CCN(C)C4=O)N3)ncc2CC)c1 [Example 241, (2R,5S)-2-[4-(5-Ethoxy-2-fluoro-phenyl)-5-ethyl-2-pyridyl]-7-methyl-1,7-diazaspiro[4.4]nonan-6-one hydrochloride] | 15.8 µM | 100 µM
4 | CC1(C)C[C@@]2(CC[C@H](c3cc(-c4ccc(C(F)(F)F)cc4)ccn3)N2)C(=O)N1 [Example 45, (2R,5S)-8,8-Dimethyl-2-[4-[4-(trifluoromethyl)phenyl]-2-pyridyl]-1,7-diazaspiro[4.4]nonan-6-one hydrochloride] | 3.16 µM | 39.8 µM
5 | Cc1cc(-c2ccc(C(F)(F)F)cc2)cc([C@H]2CC[C@@]3(CCCNC3=O)N2)n1 [Example 99, (2R,5R)-2-[6-Methyl-4-(4-trifluoromethyl-phenyl)-pyridin-2-yl]-1,7-diaza-spiro[4.5]decan-6-one hydrochloride] | 1 µM | 15.8 µM
6 | CC1(C)C[C@@]2(CC[C@@H](c3cc(-c4ccc(C(F)(F)F)cc4)ccn3)N2)C(=O)N1 [Example 44, (2S,5S)-8,8-Dimethyl-2-[4-[4-(trifluoromethyl)phenyl]-2-pyridyl]-1,7-diazaspiro[4.4]nonan-6-one hydrochloride] | 10 µM | 50.1 µM
7 | CCOc1ccc(F)c(-c2cc(C)nc(C3CCC4(CCN(C)C4=O)N3)c2C)c1 (mixture of isomers) [Example 256, 2-[4-(5-Ethoxy-2-fluoro-phenyl)-3,6-dimethyl-2-pyridyl]-7-methyl-1,7-diazaspiro[4.4]nonan-6-one hydrochloride] | 2.51 µM | 20 µM
8 | Cc1cc(C)cc(-c2ccnc([C@H]3CC[C@@]4(CCN(C)C4=O)N3)c2)c1 [Example 174, (2R,5S)-2-[4-(3,5-Dimethylphenyl)-2-pyridyl]-7-methyl-1,7-diazaspiro[4.4]nonan-6-one hydrochloride] | 25.1 µM | 126 µM
9 | O=C1NCCC[C@]12CC[C@@H](c1cc(-c3ccc(C(F)(F)F)cc3)ccn1)N2 [Example 51, (25,5S)-2-[4-(4-Trifluoromethyl-phenyl)-pyridin-2-yl]-1,7-diaza-spiro[4.5]decan-6-one hydrochloride] | 5.01 µM | 25.1 µM
10 | CCOc1ccc(F)c(-c2cc(OC)nc([C@@H]3CC[C@]4(CCN(C)C4=O)N3)c2)c1 (single isomer, unassigned) [Example 248] | 5.01 µM | 31.6 µM
11 | Cc1cc(-c2cc(C(F)(F)F)ccc2C(N)=O)cc([C@H]2CC[C@@]3(CCN(C)C3=O)N2)n1 [Example 24, 2-[2-Methyl-6-[(2R,5S)-7-methyl-6-oxo-1,7-diazaspiro[4.4]nonan-2-yl]-4-pyridyl]-4-(trifluoromethyl)benzamide hydrochloride] | 398 µM | 1000 µM
12 | CCOc1ccc(F)c(-c2cc([C@H]3CC[C@@]4(CCN(C)C4=O)N3)ncc2F)c1 [Example 223, (2R,5S)-2-[4-(5-Ethoxy-2-fluoro-phenyl)-5-fluoro-2-pyridyl]-7-methyl-1,7-diazaspiro[4.4]nonan-6-one hydrochloride] | 25.1 µM | 158 µM
13 | Cc1cc(-c2cc3c(cc2F)CCO3)cc([C@@H]2CC[C@]3(CCN(C)C3=O)N2)n1 [Example 208, (2S,5R)-2-[4-(5-Fluoro-2,3-dihydrobenzofuran-6-yl)-6-methyl-2-pyridyl]-7-methyl-1,7-diazaspiro[4.4]nonan-6-one hydrochloride] | 100 µM | 158 µM
14 | Cc1cc(-c2ccc(F)cc2)cc([C@@H]2CC[C@]3(CCN(C)C3=O)N2)n1 [Example 56, (2S,5R)-2-[4-(4-Fluorophenyl)-6-methyl-2-pyridyl]-7-methyl-1,7-diazaspiro[4.4]nonan-6-one hydrochloride] | 10 µM | 79.4 µM
15 | COc1cc(C(F)(F)F)ccc1-c1cc(C)nc([C@@H]2CC[C@@]3(CCN(C)C3=O)N2)c1 [Example 122, (2S,5S)-2-[4-[2-Methoxy-4-(trifluoromethyl)phenyl]-6-methyl-2-pyridyl]-7-methyl-1,7-diazaspiro[4.4]nonan-6-one hydrochloride] | 3.16 µM | 7.94 µM
16 | CCOc1ccc(F)c(-c2cc([C@H]3CC[C@]4(CCN(C)C4=O)N3)nc(C)c2C)c1 [Example 141, (2R,5R)-2-[4-(5-Ethoxy-2-fluoro-phenyl)-5,6-dimethyl-2-pyridyl]-7-methyl-1,7-diazaspiro[4.4]nonan-6-one hydrochloride] | 6.31 µM | 63.1 µM
17 | Cc1cc(-c2ccc(C(F)(F)F)cc2)cc([C@@H]2CC[C@@]3(CCN(C)C3=O)N2)n1 [Example 29, (2S,5S)-7-Methyl-2-[6-methyl-4-[4-(trifluoromethyl)phenyl]-2-pyridyl]-1,7-diazaspiro[4.4]nonan-6-one hydrochloride] | 20 µM | 126 µM
18 | CC1(C)C[C@]2(CC[C@@H](c3cc(-c4ccc(C(F)(F)F)cc4)ccn3)N2)C(=O)N1 [Example 47, (2S,5R)-8,8-Dimethyl-2-[4-[4-(trifluoromethyl)phenyl]-2-pyridyl]-1,7-diazaspiro[4.4]nonan-6-one hydrochloride] | 12.6 µM | 31.6 µM
19 | O=C1NCC[C@@]12CC[C@@H](c1cc(-c3cccc(OC(F)(F)F)c3)ccn1)N2 [Example 119, (2S,5S)-2-[4-[3-(Trifluoromethoxy)phenyl]-2-pyridyl]-1,7-diazaspiro[4.4]nonan-6-one hydrochloride] | 3.98 µM | 31.6 µM
20 | CCOc1ccc(F)c(-c2cc(OC)nc([C@H]3CC[C@@]4(CCN(C)C4=O)N3)c2)c1 [Example 250, (2R,5S)-2-[4-(5-Ethoxy-2-fluoro-phenyl)-6-methoxy-2-pyridyl]-7-methyl-1,7-diazaspiro[4.4]nonan-6-one hydrochloride] | 1.26 µM | 20 µM
21 | CCOc1ccc(F)c(-c2cc(C)nc([C@@H]3CC[C@]4(CCNC4=O)N3)c2)c1 [Example 102, (2S,5R)-2-[4-(5-Ethoxy-2-fluoro-phenyl)-6-methyl-2-pyridyl]-1,7-diazaspiro[4.4]nonan-6-one hydrochloride] | 2 µM | 25.1 µM
22 | CCOc1ccc(F)c(-c2ccnc([C@@H]3CC[C@@]4(CC(C)(C)NC4=O)N3)c2)c1 [Example 216, (2S,5S)-2-[4-(5-Ethoxy-2-fluoro-phenyl)-2-pyridyl]-8,8-dimethyl-1,7-diazaspiro[4.4]nonan-6-one hydrochloride] | 5.01 µM | 31.6 µM
23 | CN1CC[C@]2(CC[C@H](c3cc(-c4ccc(C(F)(F)F)cc4)c(OC(C)(C)C)cn3)N2)C1=O [Example 65, (2R,5R)-2-[5-tert-Butoxy-4-[4-(trifluoromethyl)-phenyl]-2-pyridyl]-7-methyl-1,7-diazaspiro[4.4]nonan-6-one hydrochloride] | 1.58 µM | 31.6 µM
24 | CC(C)CCn1cc(-c2ccnc([C@H]3CC[C@@]4(CCN(C)C4=O)N3)c2)cn1 [Example 170, (2R,5S)-2-[4-(1-Isopentylpyrazol-4-yl)-2-pyridyl]-7-methyl-1,7-diazaspiro[4.4]nonan-6-one hydrochloride] | 25.1 µM | 398 µM
25 | CN1CC[C@@]2(CC[C@H](c3cc(-c4cc(-c5cnn(C)c5)ccc4F)ccn3)N2)C1=O [Example 191, (2R,5S)-2-[4-[2-Fluoro-5-(1-methylpyrazol-4-yl)phenyl]-2-pyridyl]-7-methyl-1,7-diazaspiro[4.4]nonan-6-one hydrochloride] | 25.1 µM | 398 µM
26 | CN1CC[C@@]2(CC[C@H](c3cc(-c4ccccc4F)ccn3)N2)C1=O [Example 32, (2R,5S)-2-[4-(2-Fluoro-phenyl)-pyridin-2-yl]-7-methyl-1,7-diaza-spiro[4.4]nonan-6-one hydrochloride] | 39.8 µM | 251 µM
27 | Cc1cc(-c2ccc(OC(C)C)cc2)cc([C@@H]2CC[C@@]3(CCN(C)C3=O)N2)n1 [Example 86, (2S,5S)-2-[4-(4-Isopropoxyphenyl)-6-methyl-2-pyridyl]-7-methyl-1,7-diazaspiro[4.4]nonan-6-one hydrochloride] | 10 µM | 100 µM
28 | CCOc1ccc(F)c(-c2ccnc([C@@H]3CC[C@@]4(CCCNC4=O)N3)c2)c1 [Example 109, (2S,5R)-2-[4-(5-Ethoxy-2-fluoro-phenyl)-pyridin-2-yl]-1,7-diaza-spiro[4.5]decan-6-one hydrochloride] | 1 µM | 2 µM
29 | COc1ccc(F)c(-c2cc(C)nc([C@H]3CC[C@@]4(CCN(C)C4=O)N3)c2)c1 [Example 195, (2R,5S)-2-[4-(2-Fluoro-5-methoxy-phenyl)-6-methyl-2-pyridyl]-7-methyl-1,7-diazaspiro[4.4]nonan-6-one hydrochloride] | 5.01 µM | 100 µM
30 | CC(C)COc1ccc(F)c(-c2ccnc([C@H]3CC[C@@]4(CCN(C)C4=O)N3)c2)c1 [Example 253, (2R,5S)-2-[4-(2-Fluoro-5-isobutoxy-phenyl)-2-pyridyl]-7-methyl-1,7-diazaspiro[4.4]nonan-6-one hydrochloride] | 0.0794 µM | 3.16 µM

Reference: patent US9376436B2, “2-(pyridin-2yl)-1, 7-diaza-spiro [4.4] nonane-6-one compound as voltage-gated sodium channels modulators” (CONVERGENCE PHARMACEUTICALS LIMITED, priority 2011, dated 2016)
